Laboratory results published in US10669283B2, “Compound and pharmacologically acceptable salt thereof” (MEIJI SEIKA PHARMA CO., LTD., priority 2016, dated 2020).

system: PDE4; assay: PDE4 inhibition, scintillation proximity assay (SPA); assay type: biochemical; conditions: scintillation proximity assay (SPA); evaluated as classes A, B, C; read-out: PDE4 Inhibitory Activity (concentration for the inhibition rate of 50%);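 as to PDE4 Inhibitory Activity (concentration for the inhibition rate of 50%): A below 100 nM B 100 to below 1000 nM C 1000 nM or more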
Protocol: The PDE4 inhibitory activity was measured using scintillation proximity assay (SPA) as follows. A sample compound dissolved in dimethyl sulfoxide was diluted 1:10 in reaction buffer solution which contained 50 mM of Tris-HCl with pH 7.4, 8.3 mM of MgCl2, 1.7 mM of EGTA, and 3 mg/mL of bovine serum albumin (BSA). Then, 10 μL of the diluted solution was added in a 96-well assay plate. Moreover, 50 μL of PDE4 diluted 1:375 in the reaction buffer solution was added, and then 40 μL of [2,8-^3H]-adenosine-3′,5′-cyclic phosphate triethylammonium salt diluted 1:1000 in the reaction buffer solution was added. The mixture was allowed to stand at room temperature for 120 minutes. Thereafter, […] of RNA binding YSi-SPA beads suspension containing ZnSO4 was added and the mixture was allowed to stand at room temperature for 15 minutes, followed by adsorption of the enzyme reaction product to the beads. After that, the radioactivity was measured using a liquid scintillation counter for a 96-well plate. The mixture without the enzyme preparation added but only the reaction buffer solution added is a blank, and the mixture with the enzyme preparation added and only dimethyl sulfoxide added instead of the sample solution is a control.

Row | SMILES | IC50 [µM]
1 | FC(F)(F)c1cc(-c2nccs2)c2oc(N3CC4CC(C3)N4)nc2c1 [Example 52, 2-(3,6-Diazabicyclo[3.1.1]heptan-3-yl)-7-(thiazol-2-yl)-5-(trifluoromethyl)benzo[d]oxazole] | < 0.1
2 | CSc1cc(-c2nccs2)c2oc(N3CC4CC(C3)N4)nc2c1 [Example 40, 2-(3,6-Diazabicyclo[3.1.1]heptan-3-yl)-5-(methylthio)-7-(thiazol-2-yl)benzo[d]oxazole] | < 0.1
3 | OC(c1cc(-c2nccs2)c2oc(N3CC4CCC(C3)N4)nc2c1C(F)(F)F)C(F)F (stereo not shown) [Example 183, 1-(2-(3,8-Diazabicyclo[3.2.1]octan-3-yl)-7-(thiazol-2-yl)-4-(trifluoromethyl)benzo[d]oxazol-5-yl)-2,2-difluoroethan-1-ol] | < 0.1
4 | FC(F)(F)c1c(Cl)cc(-n2cccn2)c2oc(N3CC4CCCC(C3)N4)nc12 [Example 16, 2-(3,9-Diazabicyclo[3.3.1]nonan-3-yl)-5-chloro-7-(1H-pyrazol-1-yl)-4-(trifluoromethyl)benzo[d]oxazole] | < 0.1
5 | FC(F)(F)COC(c1cc(-c2nccs2)c2oc(N3CC4CCC(C3)N4)nc2c1)C(F)(F)F (stereo not shown) [Example 146, 2-(3,8-Diazabicyclo[3.2.1]octan-3-yl)-7-(thiazol-2-yl)-5-(2,2,2-trifluoro-1-(2,2,2-trifluoroethoxy)ethyl)benzo[d]oxazole] | < 0.1
6 | COCCOC(c1cc(-c2nccs2)c2oc(N3CC4CC(C3)N4)nc2c1)C(F)(F)F (stereo not shown) [Example 154, 2-(3,6-Diazabicyclo[3.1.1]heptan-3-yl)-7-(thiazol-2-yl)-5-(2,2,2-trifluoro-1-(2-methoxyethoxy)ethyl)benzo[d]oxazole] | < 0.1
7 | CC(O)c1ccc(-c2nccs2)c2oc(N3CC4CCC(C3)N4)nc12 (stereo not shown) [Example 124, 1-(2-(3,8-Diazabicyclo[3.2.1]octan-3-yl)-7-(thiazol-2-yl)benzo[d]oxazol-4-yl)ethan-1-ol] | < 0.1
8 | COC(C)(C)c1cc(-c2nccs2)c2oc(N3CC4CC(C3)N4)nc2c1OC(F)(F)F [Example 199, 2-(3,6-Diazabicyclo[3.1.1]heptan-3-yl)-5-(2-methoxypropan-2-yl)-7-(thiazol-2-yl)-4-(trifluoromethoxy)benzo[d]oxazole] | < 0.1
9 | FC(F)(F)Oc1ccc(-c2nccs2)c2oc(N3CC4CCCC(C3)N4)nc12 [Example 30, 2-(3,9-Diazabicyclo[3.3.1]nonan-3-yl)-7-(thiazol-2-yl)-4-(trifluoromethoxy)benzo[d]oxazole] | < 0.1
10 | OC(c1cc(-c2nccs2)c2oc(N3CC4CCC(C3)N4)nc2c1OC(F)(F)F)C(F)F (stereo not shown) [Example 276, 1-(2-(3,8-Diazabicyclo[3.2.1]octan-3-yl)-7-(thiazol-2-yl)-4-(trifluoromethoxy)benzo[d]oxazol-5-yl)-2,2-difluoroethan-1-ol] | < 0.1
11 | CC(=O)c1cc(-c2nccs2)c2oc(N3CC4CCC(C3)N4)nc2c1 [Example 108, 1-(2-(3,8-Diazabicyclo[3.2.1]octan-3-yl)-7-(thiazol-2-yl)benzo[d]oxazol-5-yl)ethan-1-one] | < 0.1
12 | CC(O)COC(c1ccc(-c2nccs2)c2oc(N3CC4CC(C3)N4)nc12)C(F)(F)F (stereo not shown) [Example 261, 1-(1-(2-(3,6-Diazabicyclo[3.1.1]heptan-3-yl)-7-(thiazol-2-yl)benzo[d]oxazol-4-yl)-2,2,2-trifluoroethoxy)propan-2-ol] | < 0.1
13 | CC(=O)c1ccc(-c2nccs2)c2oc(N3CC4CCC(C3)N4)nc12 [Example 245, 1-(2-(3,8-Diazabicyclo[3.2.1]octan-3-yl)-7-(thiazol-2-yl)benzo[d]oxazol-4-yl)ethan-1-one] | < 0.1
14 | CCOC(c1cc(-c2nccs2)c2oc(N3CC4CC(C3)N4)nc2c1)C(F)(F)F (stereo not shown) [Example 150, 2-(3,6-Diazabicyclo[3.1.1]heptan-3-yl)-5-(1-ethoxy-2,2,2-trifluoroethyl)-7-(thiazol-2-yl)benzo[d]oxazole] | < 0.1
15 | COC(C)(c1ccc(-c2nccs2)c2oc(N3CC4CC(C3)N4)nc12)C(F)(F)F (stereo not shown) [Example 235, 2-(3,6-Diazabicyclo[3.1.1]heptan-3-yl)-7-(thiazol-2-yl)-4-(1,1,1-trifluoro-2-methoxypropan-2-yl)benzo[d]oxazole] | < 0.1
16 | OC(O)(c1cc(-c2nccs2)c2oc(N3CC4CC(C3)N4)nc2c1)C(F)(F)F [Example 158, 1-(2-(3,6-Diazabicyclo[3.1.1]heptan-3-yl)-7-(thiazol-2-yl)benzo[d]oxazol-5-yl)-2,2,2-trifluoroethane-1,1-diol] | 0.1 to 1
17 | CC(C)(O)COC(c1ccc(-c2nccs2)c2oc(N3CC4CC(C3)N4)nc12)C(F)(F)F (stereo not shown) [Example 255] | < 0.1
18 | Oc1ccc(-c2nccs2)c2oc(N3CC4CCC(C3)N4)nc12 [Example 78, 2-(3,8-Diazabicyclo[3.2.1]octan-3-yl)-7-(thiazol-2-yl) benzo[d]oxazol-4-ol] | < 0.1
19 | NC(=O)c1cc(-c2nccs2)c2oc(N3CC4CCC(C3)N4)nc2c1 [Example 99, 2-(3,8-Diazabicyclo[3.2.1]octan-3-yl)-7-(thiazol-2-yl) benzo[d]oxazole-5-carboxamide] | < 0.1
20 | Cc1ccc(-c2nccs2)c2oc(N3CC4CCC(C3)N4)nc12 [Example 25, 2-(3,8-Diazabicyclo[3.2.1]octan-3-yl)-4-methyl-7-(thiazol-2-yl)benzo[d]oxazole] | < 0.1
21 | CCOC(=O)c1cc(-c2nccs2)c2oc(N3CC4CCC(C3)N4)nc2c1 [Example 86, Ethyl 2-(3,8-diazabicyclo[3.2.1]octan-3-yl)-7-(thiazol-2-yl) benzo[d]oxazole-5-carboxylate] | < 0.1
22 | CC(=O)Nc1cc(-c2nccs2)c2oc(N3CC4CCC(C3)N4)nc2c1 [Example 50, N-(2-(3,8-diazabicyclo[3.2.1]octan-3-yl)-7-(thiazol-2-yl)benzo[d]oxazol-5-yl)acetamide] | < 0.1
23 | O=C(c1cc(-c2nccs2)c2oc(N3CC4CCC(C3)N4)nc2c1)N1CCCCC1 [Example 96, (2-(3,8-Diazabicyclo[3.2.1]octan-3-yl)-7-(thiazol-2-yl)benzo[d]oxazol-5-yl)(piperidin-1-yl)methanone] | < 0.1
24 | CCOC(=O)c1cc(-c2nccs2)c2oc(N3CC4CCC(C3)N4)nc2c1C(F)(F)F [Example 163, Ethyl 2-(3,8-diazabicyclo[3.2.1]octan-3-yl)-7-(thiazol-2-yl)-4-(trifluoromethyl)benzo[d]oxazole-5-carboxylate] | < 0.1
25 | OC(c1cc(-c2nccs2)c2oc(N3CC4CC(C3)N4)nc2c1OC(F)(F)F)C(F)F (stereo not shown) [Example 292, 1-(2-(3,6-Diazabicyclo[3.1.1]heptan-3-yl)-7-(thiazol-2-yl)-4-(trifluoromethoxy)benzo[d]oxazol-5-yl)-2,2-difluoroethan-1-ol] | < 0.1
26 | O=C(O)c1cc(-c2nccs2)c2oc(N3CC4CC(C3)N4)nc2c1OC(F)(F)F [Example 190, 2-(3,6-Diazabicyclo[3.1.1]heptan-3-yl)-7-(thiazol-2-yl)-4-(trifluoromethoxy)benzo[d]oxazole-5-carboxylic acid] | > 1
27 | C=CCOc1cc(-c2nccs2)c2oc(N3CC4CCC(C3)N4)nc2c1 [Example 72, 5-(Allyloxy)-2-(3,8-diazabicyclo[3.2.1]octan-3-yl)-7-(thiazol-2-yl)benzo[d]oxazole] | < 0.1
28 | CC(C)(O)C(F)(F)Oc1ccc(-c2cscn2)c2oc(N3CC4CCC(C3)N4)nc12 [Example 308, 1-((2-(3,8-Diazabicyclo[3.2.1]octan-3-yl)-7-(thiazol-4-yl)benzo[d]oxazol-4-yl)oxy)-1,1-difluoro-2-methylpropan-2-ol] | < 0.1
29 | CN(C)Cc1cc(-c2nccs2)c2oc(N3CC4CCC(C3)N4)nc2c1 [Example 169, 1-(2-(3,8-Diazabicyclo[3.2.1]octan-3-yl)-7-(thiazol-2-yl)benzo[d]oxazol-5-yl)-N,N-dimethylmethanamine] | < 0.1

same assay, conditions: scintillation proximity assay; class symbols; read-out: PDE4 Inhibitory Activity

Row | SMILES | IC50 [µM]
30 | CCC(F)(F)Oc1ccc(-c2nccs2)c2oc(N3CC4CC(C3)N4)nc12 [Example 402, 2-(3,6-diazabicyclo [3.1.1]heptan-3-yl)-4-(1,1-difluoro-propoxy)-7-(thiazol-2-yl) benzo[d] oxazole] | < 0.1
31 | CNS(=O)(=O)c1ccc(-c2nccs2)c2oc(N3CC4CC(C3)N4)nc12 [Example 386, 2-(3,6-diazabicyclo[3.1.1]heptan-3-yl)-N-methyl-7-(thiazol-2-yl)benzo[d] oxazole-4-sulfonamide] | < 0.1
32 | OC(c1ccc(-c2nccs2)c2oc(N3CC4CCC(C3)N4O)nc12)C(F)(F)F (stereo not shown) [Example 378, 3-(7-(thiazol-2-yl)-4-(2,2,2-trifluoro-1-hydroxyethyl)benzo[d]oxazol-2-yl)-3,8-diazabicyclo[3.2.1] octan-8-ol] | 0.1 to 1
33 | CC(C)(O)c1cc(-c2nccs2)c2oc(N3CC4CCC(C3)N4O)nc2c1OC(F)(F)F [Example 368, 3-(5-(2-hydroxy-propan-2-yl)-7-(thiazol-2-yl)-4-(trifluoromethoxy)benzo[d]oxazol-2-yl)-3,8-diazabicyclo [3.2.1]octan-8-ol] | 0.1 to 1
34 | FC(F)(Oc1ccc(-c2nccs2)c2oc(N3CC4CC(C3)N4)nc12)c1nc2ccccc2o1 [Example 403, 4-(benzo [d]oxazol-2-yldifluoro-methoxy)-2-(3,6-diazabicyclo [3.1.1]heptan-3-yl)-7-(thiazol-2-yl)benzo[d] oxazole] | < 0.1
